The record followed here is patent US12662491B2 (Redona Therapeutics, Inc., priority 2020, dated 2026).

For the assay, the target named is T1, Zcchc11 enzyme (Homo sapiens, UniProt Q5TAX3).
T1 construct: made in house; host or cells: HEK293 cells (Zcchc11); E. coli Rosetta II (LIN28A)
T1 sequence (Q5TAX3 212-1420): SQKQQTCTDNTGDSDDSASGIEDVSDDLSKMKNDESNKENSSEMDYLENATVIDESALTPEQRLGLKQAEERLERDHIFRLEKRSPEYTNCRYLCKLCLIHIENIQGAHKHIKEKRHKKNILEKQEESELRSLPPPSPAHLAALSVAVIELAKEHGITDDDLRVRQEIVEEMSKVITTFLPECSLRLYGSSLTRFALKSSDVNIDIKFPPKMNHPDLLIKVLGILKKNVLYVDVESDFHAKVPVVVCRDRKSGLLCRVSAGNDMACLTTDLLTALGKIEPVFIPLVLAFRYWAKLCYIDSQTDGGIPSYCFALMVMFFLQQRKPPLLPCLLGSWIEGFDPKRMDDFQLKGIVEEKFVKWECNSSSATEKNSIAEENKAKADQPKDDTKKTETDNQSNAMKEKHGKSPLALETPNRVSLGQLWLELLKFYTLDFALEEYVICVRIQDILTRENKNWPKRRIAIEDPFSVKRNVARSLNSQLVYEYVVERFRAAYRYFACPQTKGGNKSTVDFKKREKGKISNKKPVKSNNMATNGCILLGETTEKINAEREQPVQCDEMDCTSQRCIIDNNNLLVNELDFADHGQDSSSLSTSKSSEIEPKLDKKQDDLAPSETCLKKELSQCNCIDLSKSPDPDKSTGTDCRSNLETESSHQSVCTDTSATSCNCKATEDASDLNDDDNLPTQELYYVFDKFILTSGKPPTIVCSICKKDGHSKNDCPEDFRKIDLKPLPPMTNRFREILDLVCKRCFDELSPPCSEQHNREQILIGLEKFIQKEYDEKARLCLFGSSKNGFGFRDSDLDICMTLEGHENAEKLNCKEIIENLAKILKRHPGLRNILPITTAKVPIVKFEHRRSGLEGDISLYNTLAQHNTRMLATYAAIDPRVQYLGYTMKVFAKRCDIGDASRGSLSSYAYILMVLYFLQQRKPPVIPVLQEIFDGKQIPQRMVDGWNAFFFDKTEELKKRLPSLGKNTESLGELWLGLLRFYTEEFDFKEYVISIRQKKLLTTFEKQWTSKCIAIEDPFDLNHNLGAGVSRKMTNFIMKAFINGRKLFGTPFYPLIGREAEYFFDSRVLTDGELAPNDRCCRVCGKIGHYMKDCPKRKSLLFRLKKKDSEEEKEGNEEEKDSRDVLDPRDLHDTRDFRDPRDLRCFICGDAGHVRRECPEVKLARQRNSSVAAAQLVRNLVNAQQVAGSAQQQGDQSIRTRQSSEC
Nature of the assay: TUTase assay (Zcchc11 assay, Lin28a-dependent polyuridylation of pre-let-7). It is filed as biochemical. Particulars: Lin28a-dependent Zcchc11 (Z11) TUTase activity; read-out: Potency Lin28a-dep Z11 IC50. In a few lines:
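Polyuridylation measured as fluorescein loss when a rhodamine-labelled A20 probe anneals to U-tails added to fluorescein pre-let-7 (2 nM). Reaction: truncated Zcchc11 0.2 nM, E. coli-made LIN28A 10 nM, UTP 5 uM, HEPES pH 7.3, room temperature. Initial rates fitted to four-parameter IC50.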

Usually IC50 stands for the concentration at which inhibition is half-maximal. As for `Cc1cccnc1OC[C@H]1CCCN1c1cc2c(cc1F)c(=O)c(C(=O)O)cn2-c1ccc(F)c(O)c1` [Compound 121, (R)-6-fluoro-1-(4-fluoro-3-hydroxy-phenyl)-7-(2-(((3-methylpyridin-2-yl)oxy)methyl)pyrrolidin-1-yl)-4-oxo-1,4-dihydro-quinoline-3-carboxylic acid], the IC50 was at most 1000 nM.
The figure for `Cc1cccnc1OC[C@H]1CCCN1c1cc2c(cc1F)c(=O)c(C(=O)O)cn2-c1ccc(O)c(Cl)c1` [Compound 122, (R)-1-(3-chloro-4-hydroxy-phenyl)-6-fluoro-7-(2-(((3-methylpyridin-2-yl)oxy)methyl)pyrrolidin-1-yl)-4-oxo-1,4-dihydro-quinoline-3-carboxylic acid] is at most 1000 nM.
The figure for `Cc1cccnc1OC[C@H]1CCCN1c1cc2c(cc1F)c(=O)c(C(=O)O)cn2-c1ccc(CO)cc1F` [Compound 123, (R)-6-fluoro-1-(2-fluoro-4-(hydroxy-methyl)phenyl)-7-(2-(((3-methylpyridin-2-yl)oxy)methyl)pyrrolidin-1-yl)-4-oxo-1,4-dihydro-quinoline-3-carboxylic acid] is at most 1000 nM.
In the case of `COCCOc1ccc(-n2cc(C(=O)O)c(=O)c3cc(F)c(N4CCC[C@@H]4COc4ncccc4C)cc32)cc1` [Compound 124, (R)-6-fluoro-1-(4-(2-methoxyethoxy)phenyl)-7-(2-(((3-methylpyridin-2-yl)oxy)methyl)pyrrolidin-1-yl)-4-oxo-1,4-dihydro-quinoline-3-carboxylic acid] it was at most 1000 nM.
With `COCCOc1cnc(-n2cc(C(=O)O)c(=O)c3cc(F)c(N4CCC[C@@H]4COc4ncccc4C)cc32)cn1` [Compound 125, (R)-6-fluoro-1-(5-(2-methoxyethoxy)pyrazin-2-yl)-7-(2-(((3-methylpyridin-2-yl)oxy)methyl)pyrrolidin-1-yl)-4-oxo-1,4-dihydro-quinoline-3-carboxylic acid], the IC50 is at most 1000 nM.
Turning to `O=C(O)c1cn(-c2ccc(Cl)c(O)c2)c2cc(N3CCC[C@@H]3COc3ncccc3Cl)c(Cl)cc2c1=O` [Compound 126, (R)-6-chloro-1-(4-chloro-3-hydroxy-phenyl)-7-(2-(((3-chloropyridin-2-yl)oxy)methyl)pyrrolidin-1-yl)-4-oxo-1,4-dihydro-quinoline-3-carboxylic acid], the half-inhibitory concentration (IC50) was at most 1000 nM.
In the case of `O=C(O)c1cn(-c2ccc(O)c(F)c2)c2cc(N3CCC[C@@H]3COc3ncccc3Cl)c(Cl)cc2c1=O` [Compound 127, (R)-6-chloro-7-(2-(((3-chloropyridin-2-yl)oxy)methyl)pyrrolidin-1-yl)-1-(3-fluoro-4-hydroxy-phenyl)-4-oxo-1,4-dihydro-quinoline-3-carboxylic acid] it was at most 1000 nM.
The figure for `O=C(O)c1cn(-c2ccc3[nH]ncc3c2)c2cc(N3CCC[C@@H]3COc3ncccc3Cl)c(Cl)cc2c1=O` [Compound 128, (R)-6-chloro-7-(2-(((3-chloropyridin-2-yl)oxy)methyl)pyrrolidin-1-yl)-1-(1H-indazol-5-yl)-4-oxo-1,4-dihydro-quinoline-3-carboxylic acid] is at most 1000 nM.
On to `CC1(n2cc(C(=O)O)c(=O)c3cc(Cl)c(N4CCC[C@@H]4COc4ncccc4Cl)cc32)CC1` [Compound 129, (R)-6-chloro-7-(2-(((3-chloropyridin-2-yl)oxy)methyl)pyrrolidin-1-yl)-1-(1-methylcyclo-propyl)-4-oxo-1,4-dihydro-quinoline-3-carboxylic acid], for which the IC50 is at most 1000 nM.
Consider `O=C(O)c1cn(-c2ccc(F)c(O)c2)c2cc(N3CCC[C@@H]3COc3ncccc3Cl)c(Cl)cc2c1=O` [Compound 130, (R)-6-chloro-7-(2-(((3-chloropyridin-2-yl)oxy)methyl)pyrrolidin-1-yl)-1-(4-fluoro-3-hydroxy-phenyl)-4-oxo-1,4-dihydro-quinoline-3-carboxylic acid], for which the IC50 is at most 1000 nM.
In the case of `O=C(O)c1cn(-c2ccc(O)c(Cl)c2)c2cc(N3CCC[C@@H]3COc3ncccc3Cl)c(Cl)cc2c1=O` [Compound 131, (R)-6-chloro-1-(3-chloro-4-hydroxy-phenyl)-7-(2-(((3-chloropyridin-2-yl)oxy)methyl)pyrrolidin-1-yl)-4-oxo-1,4-dihydro-quinoline-3-carboxylic acid] it was at most 1000 nM; in that of `Cc1cccnc1OC[C@H]1CCCN1c1c(F)cc2c(=O)c(C(=O)O)cn(-c3ccc(O)cc3)c2c1F` [Compound 132, (R)-6,8-difluoro-1-(4-hydroxy-phenyl)-7-(2-(((3-methylpyridin-2-yl)oxy)methyl)pyrrolidin-1-yl)-4-oxo-1,4-dihydro-quinoline-3-carboxylic acid], at most 1000 nM; in that of `Cc1cccnc1OC[C@H]1CCCN1c1nc2c(cc1F)c(=O)c(C(=O)O)cn2-c1ccc(O)cc1` [Compound 133, (R)-6-fluoro-1-(4-hydroxy-phenyl)-7-(2-(((3-methylpyridin-2-yl)oxy)methyl)pyrrolidin-1-yl)-4-oxo-1,4-dihydro-1,8-naphthyridine-3-carboxylic acid], at most 1000 nM.
The figure for `O=C(O)c1cn(-c2ccc(O)cc2)c2c(F)c(N3CCC[C@@H]3COc3ccccn3)c(F)cc2c1=O` [Compound 134, (R)-6,8-difluoro-1-(4-hydroxy-phenyl)-4-oxo-7-(2-((pyridin-2-yloxy)methyl)pyrrolidin-1-yl)-1,4-dihydro-quinoline-3-carboxylic acid] is at most 1000 nM.
Take `O=C(O)c1cn(-c2ccc(O)cc2F)c2cc(N3CCC[C@@H]3COc3cccnn3)c(F)cc2c1=O` [Compound 135, (R)-6-fluoro-1-(2-fluoro-4-hydroxy-phenyl)-4-oxo-7-(2-((pyridazin-3-yloxy)methyl)pyrrolidin-1-yl)-1,4-dihydro-quinoline-3-carboxylic acid]: the 50% inhibitory concentration (IC50) is at most 1000 nM.
In the case of `O=C(O)c1cn(-c2ccc(O)cc2F)c2cc(N3CCC[C@@H]3COc3ccncn3)c(F)cc2c1=O` [Compound 136, (R)-6-fluoro-1-(2-fluoro-4-hydroxy-phenyl)-4-oxo-7-(2-((pyrimidin-4-yloxy)methyl)pyrrolidin-1-yl)-1,4-dihydro-quinoline-3-carboxylic acid] it was 1000 to 10000 nM; in that of `COc1ccc(COc2ccc(-n3cc(C(=O)O)c(=O)c4cc(F)c(N5CCC[C@@H]5COc5ncccn5)cc43)c(F)c2)cc1` [Compound 137, (R)-6-fluoro-1-(2-fluoro-4-((4-methoxy-benzyl)oxy)phenyl)-4-oxo-7-(2-((pyrimidin-2-yloxy)methyl)pyrrolidin-1-yl)-1,4-dihydro-quinoline-3-carboxylic acid], at most 1000 nM.
The figure for `COc1ccc(COc2ccc(-n3cc(C(=O)O)c(=O)c4cc(F)c(N5CCC[C@@H]5COc5cccnn5)cc43)c(F)c2)cc1` [Compound 138, (R)-6-fluoro-1-(2-fluoro-4-((4-methoxy-benzyl)oxy)phenyl)-4-oxo-7-(2-((pyridazin-3-yloxy)methyl)pyrrolidin-1-yl)-1,4-dihydro-quinoline-3-carboxylic acid] is at most 1000 nM; for `COc1ccc(COc2ccc(-n3cc(C(=O)O)c(=O)c4cc(F)c(N5CCC[C@@H]5COc5ccncn5)cc43)c(F)c2)cc1` [Compound 139, (R)-6-fluoro-1-(2-fluoro-4-((4-methoxy-benzyl)oxy)phenyl)-4-oxo-7-(2-((pyrimidin-4-yloxy)methyl)pyrrolidin-1-yl)-1,4-dihydro-quinoline-3-carboxylic acid] it is at most 1000 nM.
The figure for `CC(C)[C@H]1COC(=O)N1C[C@H]1CCCN1c1cc2c(cc1Cl)c(=O)c(C(=O)O)cn2C1(C)CC1` [Compound 140, 6-chloro-7-((R)-2-(((S)-4-isopropyl-2-oxooxazolidin-3-yl)methyl)pyrrolidin-1-yl)-1-(1-methylcyclo-propyl)-4-oxo-1,4-dihydro-quinoline-3-carboxylic acid] is over 50000 nM; for `CC(C)[C@@H]1COC(=O)N1C[C@H]1CCCN1c1cc2c(cc1Cl)c(=O)c(C(=O)O)cn2C1(C)CC1` [Compound 141, 6-chloro-7-((R)-2-(((R)-4-isopropyl-2-oxooxazolidin-3-yl)methyl)pyrrolidin-1-yl)-1-(1-methylcyclo-propyl)-4-oxo-1,4-dihydro-quinoline-3-carboxylic acid] it is over 50000 nM.
